Assay [1] is described as follows: cells. Format: functional, cell-based.
A short description of assay [2]: cells. It counts as functional, cell-based. This is another data set of the same source.
The next assay has as its target T1, Protein skinhead-1 (Caenorhabditis elegans, UniProt P34707).
T1 sequence (P34707 whole entry): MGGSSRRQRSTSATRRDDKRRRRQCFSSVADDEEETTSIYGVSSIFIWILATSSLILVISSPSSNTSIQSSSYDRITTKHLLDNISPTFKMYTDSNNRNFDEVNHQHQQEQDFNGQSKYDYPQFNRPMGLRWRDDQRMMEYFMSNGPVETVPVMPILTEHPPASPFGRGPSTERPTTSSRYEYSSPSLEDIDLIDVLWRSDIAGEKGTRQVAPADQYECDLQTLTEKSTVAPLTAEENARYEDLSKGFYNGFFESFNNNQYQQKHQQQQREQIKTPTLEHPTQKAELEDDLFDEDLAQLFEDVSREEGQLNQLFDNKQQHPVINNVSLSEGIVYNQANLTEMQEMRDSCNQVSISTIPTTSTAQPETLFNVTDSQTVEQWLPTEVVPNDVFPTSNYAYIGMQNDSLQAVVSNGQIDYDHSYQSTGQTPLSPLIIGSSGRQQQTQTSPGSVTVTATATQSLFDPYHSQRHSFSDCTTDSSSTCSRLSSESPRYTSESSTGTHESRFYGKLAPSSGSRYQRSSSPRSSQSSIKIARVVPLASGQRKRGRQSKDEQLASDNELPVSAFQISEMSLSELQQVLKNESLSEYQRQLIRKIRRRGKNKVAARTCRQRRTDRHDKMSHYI
It counts as functional.

The target of assay [3] is T2, Replicative DNA helicase DnaB (Mycobacterium tuberculosis, UniProt P9WMR3).
T2 sequence (P9WMR3 whole entry): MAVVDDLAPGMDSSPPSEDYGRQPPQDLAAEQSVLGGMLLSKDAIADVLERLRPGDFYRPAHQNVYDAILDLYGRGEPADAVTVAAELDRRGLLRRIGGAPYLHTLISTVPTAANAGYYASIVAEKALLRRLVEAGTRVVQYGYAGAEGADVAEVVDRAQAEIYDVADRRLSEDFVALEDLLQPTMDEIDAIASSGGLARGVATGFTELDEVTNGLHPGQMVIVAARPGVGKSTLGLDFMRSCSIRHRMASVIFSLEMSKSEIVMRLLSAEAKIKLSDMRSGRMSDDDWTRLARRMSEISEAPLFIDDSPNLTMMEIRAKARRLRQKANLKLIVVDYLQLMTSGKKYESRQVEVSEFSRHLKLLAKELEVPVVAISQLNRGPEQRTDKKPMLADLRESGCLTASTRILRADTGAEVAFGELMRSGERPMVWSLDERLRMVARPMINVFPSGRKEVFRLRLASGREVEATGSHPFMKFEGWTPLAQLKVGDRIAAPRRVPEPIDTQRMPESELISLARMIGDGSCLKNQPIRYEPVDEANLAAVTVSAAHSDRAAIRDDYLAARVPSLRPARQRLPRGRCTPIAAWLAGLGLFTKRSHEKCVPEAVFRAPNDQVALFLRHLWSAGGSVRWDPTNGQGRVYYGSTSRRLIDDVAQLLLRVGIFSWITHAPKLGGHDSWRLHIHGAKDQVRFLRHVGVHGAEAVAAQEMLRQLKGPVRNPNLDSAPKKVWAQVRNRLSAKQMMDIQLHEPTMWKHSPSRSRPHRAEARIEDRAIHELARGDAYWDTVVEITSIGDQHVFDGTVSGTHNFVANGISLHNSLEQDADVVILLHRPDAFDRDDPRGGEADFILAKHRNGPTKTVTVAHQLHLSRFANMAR
Description: DnaB intein splicing inhibitors, dose response, biochemical, cell-free fluorescence (AID 449749). Format: functional.

The target of the next assay is T3, Protein RecA (Mycobacterium tuberculosis, UniProt P9WHJ3).
T3 sequence (P9WHJ3 whole entry): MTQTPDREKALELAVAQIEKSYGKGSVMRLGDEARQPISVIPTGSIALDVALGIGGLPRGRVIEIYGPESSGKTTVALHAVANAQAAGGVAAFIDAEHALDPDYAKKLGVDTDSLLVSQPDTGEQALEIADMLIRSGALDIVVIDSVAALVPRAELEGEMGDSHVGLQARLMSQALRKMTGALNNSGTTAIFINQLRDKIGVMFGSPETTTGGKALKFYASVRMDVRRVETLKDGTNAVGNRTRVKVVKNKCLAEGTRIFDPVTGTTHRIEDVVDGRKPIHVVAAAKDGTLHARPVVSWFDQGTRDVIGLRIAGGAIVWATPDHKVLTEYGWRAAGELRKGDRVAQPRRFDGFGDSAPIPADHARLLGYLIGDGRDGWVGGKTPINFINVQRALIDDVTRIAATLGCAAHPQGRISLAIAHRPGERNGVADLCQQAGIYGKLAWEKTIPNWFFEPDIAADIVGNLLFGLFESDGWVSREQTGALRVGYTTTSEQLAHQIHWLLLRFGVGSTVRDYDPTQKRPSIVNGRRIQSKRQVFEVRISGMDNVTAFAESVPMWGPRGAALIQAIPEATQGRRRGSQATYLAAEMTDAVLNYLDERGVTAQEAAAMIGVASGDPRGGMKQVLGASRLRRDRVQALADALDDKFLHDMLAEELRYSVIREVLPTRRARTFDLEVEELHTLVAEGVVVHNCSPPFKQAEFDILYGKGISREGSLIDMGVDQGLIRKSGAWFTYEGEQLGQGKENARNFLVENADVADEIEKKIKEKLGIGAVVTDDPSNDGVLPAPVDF
Description: Fluorescence Cell-Free Homogeneous Dose Retest to Identify Inhibitors of RecA-Intein Splicing Activity. [Related pubchem assays (depositor defined):AID2097, AID2223, AID489010, AID492950]. It counts as functional.

Assay [4] has as its target T4, Heat shock factor protein 1 (Mus musculus, UniProt P38532).
T4 sequence (P38532 whole entry): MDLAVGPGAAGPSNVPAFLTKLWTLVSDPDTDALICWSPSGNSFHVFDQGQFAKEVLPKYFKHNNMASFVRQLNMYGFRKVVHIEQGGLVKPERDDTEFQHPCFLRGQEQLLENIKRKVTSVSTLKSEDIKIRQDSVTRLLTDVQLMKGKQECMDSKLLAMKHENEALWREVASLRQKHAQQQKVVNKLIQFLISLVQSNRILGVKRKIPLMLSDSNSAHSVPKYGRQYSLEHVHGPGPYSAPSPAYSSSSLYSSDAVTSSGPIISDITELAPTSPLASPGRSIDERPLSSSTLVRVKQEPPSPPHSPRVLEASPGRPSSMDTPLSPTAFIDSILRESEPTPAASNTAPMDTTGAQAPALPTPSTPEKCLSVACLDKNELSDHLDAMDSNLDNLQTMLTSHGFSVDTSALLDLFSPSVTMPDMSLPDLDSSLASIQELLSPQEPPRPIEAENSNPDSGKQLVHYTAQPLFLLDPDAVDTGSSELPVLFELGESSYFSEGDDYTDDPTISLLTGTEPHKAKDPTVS
Description: decrease of HSF1-responsive luciferase luminescence – cell-based, NIH3T3, dose retest, confirmation (AID 2382).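 Further: NIH3T3 fibroblasts with HSF1-driven luciferase reporter stressed by proteasome inhibitor MG132; luminescence from HSF1-driven luciferase expression after 8 hours of MG132 stress.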 It counts as functional.

Assay [5] can be described thus: off-target signal loss in HeLa-CEM21 co-culture – HeLa F-luc CTL cells, cherry-picked, counter-screen for HIV-1 Env fusion inhibitor project, dose response (AID 652040).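 Further: potency for signal decrease marking cytotoxic or nonspecific inhibition.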 It counts as functional, cell-based. On the technique in general: The purpose of a counterscreen is to sort out artefacts and off-target activity.
The target in assay [6] is T5, Rac GTPase-activating protein 1 (Homo sapiens, UniProt Q9H0H5).
T5 sequence (Q9H0H5 whole entry): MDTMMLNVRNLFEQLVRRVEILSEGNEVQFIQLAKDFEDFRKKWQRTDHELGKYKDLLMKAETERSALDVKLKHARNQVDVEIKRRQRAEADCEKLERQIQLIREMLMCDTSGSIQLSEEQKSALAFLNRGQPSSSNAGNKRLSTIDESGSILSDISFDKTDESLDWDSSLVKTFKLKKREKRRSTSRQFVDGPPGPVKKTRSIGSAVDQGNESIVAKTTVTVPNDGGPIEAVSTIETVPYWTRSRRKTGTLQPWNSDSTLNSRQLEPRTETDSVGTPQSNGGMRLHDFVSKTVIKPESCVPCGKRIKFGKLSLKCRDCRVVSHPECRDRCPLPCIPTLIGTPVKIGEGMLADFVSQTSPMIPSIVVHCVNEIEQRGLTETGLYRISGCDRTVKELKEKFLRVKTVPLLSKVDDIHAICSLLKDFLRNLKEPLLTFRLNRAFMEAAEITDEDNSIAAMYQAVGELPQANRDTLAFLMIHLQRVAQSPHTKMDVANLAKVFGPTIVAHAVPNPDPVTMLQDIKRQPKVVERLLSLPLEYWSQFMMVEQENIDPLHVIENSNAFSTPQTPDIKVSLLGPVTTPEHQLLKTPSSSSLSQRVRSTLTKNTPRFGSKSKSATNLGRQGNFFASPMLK
As to the kind of experiment: blockers of MgcRacGAP-driven Rac1 GTP hydrolysis – biochemical, ADP Hunter fluorescence, primary and confirmatory, confirmation (AID 624330). It counts as functional.

Assay [7] is described as follows: HIV-1 AD8 envelope cell-cell fusion blockers – cherry-pick, dose response (AID 652062).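 Further: luciferase signal from cell-cell fusion driven by HIV-1 clade B AD8 Env; potency is for inhibitors of fusion seen as a drop in luminescence.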 It counts as functional, cell-based.
A short description of assay [8]: blockers of HIV-1 envelope-mediated cell-cell fusion – cherry-pick, dose response (AID 652057). Format: functional, cell-based.
Assay [9] can be described thus: blockers of HIV-1 ZM109 envelope-driven cell-cell fusion – HeLa effector, CEM target cells, luciferase, cherry-pick, dose response (AID 652058).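 Further: luciferase signal from HIV-1 Env mediated cell-cell fusion of effector and target cells.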 Format: functional, cell-based.

Each structure is given as a SMILES string. Calls of active or inactive are those of the source.

A word on the EC50: it is the concentration at which the effect is half-maximal. As a reminder, the IC50 is the point on the concentration scale where inhibition reaches its midpoint. Usually AC50 stands for the midpoint of the concentration-response curve, whichever way the signal moves.

For `COc1ccc(C)cc1NC(=O)c1ccc(N(C)S(C)(=O)=O)cc1`, the EC50 in the assay “cells [1]” and in “cells [2]” was > 350 µM (not active) throughout.
Turning to `CCOc1ccccc1NC(=O)COc1ccc2c(c1)OCO2`, the EC50 in “cells [1]” and in “cells [2]” was > 350 µM (not active) throughout.
On to `CCCCCCn1c(N2CCC(C(N)=O)CC2)nc2c1c(=O)n(C)c(=O)n2C`, for which the IC50 on Protein skinhead-1 is > 100 µM (inactive). Further, in assay [3], the AC50 is > 380 µM (inactive). Moreover, at Protein RecA, the EC50 was > 380 µM (inactive).
In the case of `C1CC1Cc1noc(CN2CCN(CC3CC3)CC2)n1`, the EC50 in the assay “cells [1]” and in “cells [2]” was > 350 µM (not active) throughout.
Consider `Cc1ccc2nc(-c3ccccc3NC(=O)CCC(=O)O)c(O)nc2c1`, for which the EC50 in [4] is given as > 195 µM (not active); in the assay “cells [1]”, > 350 µM (not active); in “cells [2]” it was > 350 µM (not active).
On to `O=C(NCC1CCCO1)c1sc2cc(Cl)ccc2c1Cl` (stereo unspecified), for which the concentration for a half-maximal effect (EC50) in the assay “cells [1]” is > 350 µM (not active); in “cells [2]”, 66.4 µM (active).
Take `Cc1onc(-c2ccccc2)c1C(=O)OCCOc1cccc(Cl)c1`: in assay [5], the AC50 is > 70 µM (inactive).
For the molecule `Cc1cccc(NC(=O)Cc2noc3ccccc23)c1`, the EC50 in the assay “cells [1]” was > 350 µM (not active); in “cells [2]” it was 115 µM (active).
On to `N#Cc1ccccc1OCCCN1CCC(Cc2ccccc2)CC1`, for which the EC50 in “cells [1]” and in the assay “cells [2]” was > 350 µM (not active) in each case. Besides, the half-inhibitory concentration (IC50) in [6] is 132 µM (active).
As for `CCOC(=O)CN1C(=N)N(c2nc(NC(C)C)nc(NC(C)C)n2)CC1=O`, the concentration for a half-maximal effect (EC50) in the assay “cells [1]” and in the assay “cells [2]” was > 350 µM (not active) throughout.
As for `COc1ccc(CCN(Cc2cccs2)S(=O)(=O)c2ccc(-n3cnnn3)cc2)cc1OC`, the concentration at half-maximal activity (AC50) in assay [7] was 9.27 µM (active); in assay [8], 12.7 µM (active); in assay [9], 20.3 µM (active).
As to `COc1ccc(S(=O)(=O)N(C)C[C@@H]2Oc3ncc(-c4cc5ccccc5o4)cc3C(=O)N([C@H](C)CO)C[C@@H]2C)cc1`, the results for the concentration at half-maximal activity (AC50) in assay [7] and in [8] were 16.4 µM (active) and 10.5 µM (active), respectively.
Regarding `CC1CCN(C(=O)c2ncn3c2C(=O)NC[C@@H]3C)CC1`, the AC50 was 3.59 µM (active) in assay [8], 15.7 µM (active) in [9] and 18 µM (active) in assay [5].
For the molecule `CN1C(=O)c2cc(NS(=O)(=O)c3ccccc3F)ccc2OC[C@@H]2O[C@H](CC(=O)NC3Cc4ccccc4C3)CC[C@@H]21`, the concentration at half-maximal activity (AC50) was 8.06 µM (active) in assay [7], 2.89 µM (active) in assay [8] and 2.99 µM (active) in assay [9].
On to `COc1ccc(NC(=O)Nc2ccc3c(c2)C(=O)N([C@H](C)CO)C[C@H](C)[C@H](CN(C)S(=O)(=O)c2ccc(F)cc2)O3)cc1`, for which the AC50 was 27.5 µM (active) in assay [7], 13 µM (active) in [8] and 16.6 µM (active) in assay [9].
Turning to `CN(C[C@H](Cc1ccccc1)N(C[C@H](c1ccccc1)N(CCc1ccccc1)N=O)N=O)N=O`, the AC50 in assay [8] is 7.62 µM (active); in assay [9], 9.49 µM (active); in assay [5] it was 35.2 µM (active).
With `Cc1ccc(-c2nc(CS(=O)(=O)CC(=O)NC3CCC(C)CC3)c(C)o2)cc1` (stereo unspecified), the EC50 in “cells [1]” and in the assay “cells [2]” was > 350 µM (not active) throughout.
